Assays:
[1] = biological target: Casein kinase I isoform delta (Homo sapiens) (UniProt P48730)
[2] = biological target: Mitogen-activated protein kinase kinase kinase 11 (Homo sapiens) (UniProt Q16584)
[3] = biological target: ALK tyrosine kinase receptor (Homo sapiens) (UniProt Q9UM73)
[4] = biological target: Tyrosine-protein kinase Fgr (Homo sapiens) (UniProt P09769)
[5] = biological target: Cyclin-dependent kinase 11B (Homo sapiens) (UniProt P21127)
[6] = biological target: T1, Ephrin type-A receptor 1 (Homo sapiens) (UniProt P21709)
T1 sequence (whole entry): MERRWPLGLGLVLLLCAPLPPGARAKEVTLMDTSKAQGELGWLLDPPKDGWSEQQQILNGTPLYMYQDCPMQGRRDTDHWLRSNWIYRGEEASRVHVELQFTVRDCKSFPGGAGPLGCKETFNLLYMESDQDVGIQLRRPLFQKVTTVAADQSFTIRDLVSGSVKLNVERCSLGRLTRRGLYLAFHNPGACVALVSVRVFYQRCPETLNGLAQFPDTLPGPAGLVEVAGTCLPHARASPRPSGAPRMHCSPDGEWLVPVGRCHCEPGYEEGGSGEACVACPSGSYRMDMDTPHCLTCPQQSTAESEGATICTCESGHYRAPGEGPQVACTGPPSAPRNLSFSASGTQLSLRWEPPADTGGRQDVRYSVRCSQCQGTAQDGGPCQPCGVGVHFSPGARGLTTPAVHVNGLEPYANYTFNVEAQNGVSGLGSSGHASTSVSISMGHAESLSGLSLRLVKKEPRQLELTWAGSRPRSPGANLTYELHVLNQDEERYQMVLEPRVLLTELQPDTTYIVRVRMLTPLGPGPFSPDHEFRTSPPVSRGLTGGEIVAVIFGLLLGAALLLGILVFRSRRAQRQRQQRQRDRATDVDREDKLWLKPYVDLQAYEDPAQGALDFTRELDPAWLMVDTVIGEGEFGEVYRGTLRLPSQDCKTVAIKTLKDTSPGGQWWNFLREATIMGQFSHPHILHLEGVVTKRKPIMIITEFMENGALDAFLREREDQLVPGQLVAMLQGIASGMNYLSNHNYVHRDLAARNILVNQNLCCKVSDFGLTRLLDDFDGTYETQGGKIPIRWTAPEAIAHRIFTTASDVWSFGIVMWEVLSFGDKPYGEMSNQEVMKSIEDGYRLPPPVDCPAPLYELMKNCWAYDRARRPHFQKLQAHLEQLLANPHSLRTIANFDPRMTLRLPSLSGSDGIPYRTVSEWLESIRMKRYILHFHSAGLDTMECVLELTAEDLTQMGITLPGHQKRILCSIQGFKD

[7] = biological target: T2, Serine/threonine-protein kinase 4 (Homo sapiens) (UniProt Q13043)
T2 sequence (whole entry): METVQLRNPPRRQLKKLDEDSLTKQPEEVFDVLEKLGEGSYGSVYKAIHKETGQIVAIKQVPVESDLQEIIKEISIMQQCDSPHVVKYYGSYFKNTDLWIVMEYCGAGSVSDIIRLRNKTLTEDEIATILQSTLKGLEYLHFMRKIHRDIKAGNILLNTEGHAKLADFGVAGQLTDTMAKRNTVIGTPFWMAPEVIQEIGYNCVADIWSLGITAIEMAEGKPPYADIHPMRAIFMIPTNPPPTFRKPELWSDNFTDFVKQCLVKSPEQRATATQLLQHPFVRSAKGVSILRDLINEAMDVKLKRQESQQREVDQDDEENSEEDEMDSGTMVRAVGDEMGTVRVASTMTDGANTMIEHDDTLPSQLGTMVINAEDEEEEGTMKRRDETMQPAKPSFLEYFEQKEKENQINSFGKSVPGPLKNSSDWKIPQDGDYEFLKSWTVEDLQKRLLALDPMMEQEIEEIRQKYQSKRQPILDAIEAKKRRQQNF

[8] = biological target: Serine/threonine-protein kinase PRP4 homolog (Homo sapiens) (UniProt Q13523)
Serine/threonine-protein kinase PRP4 homolog (Homo sapiens), sequence (Q13523 whole entry): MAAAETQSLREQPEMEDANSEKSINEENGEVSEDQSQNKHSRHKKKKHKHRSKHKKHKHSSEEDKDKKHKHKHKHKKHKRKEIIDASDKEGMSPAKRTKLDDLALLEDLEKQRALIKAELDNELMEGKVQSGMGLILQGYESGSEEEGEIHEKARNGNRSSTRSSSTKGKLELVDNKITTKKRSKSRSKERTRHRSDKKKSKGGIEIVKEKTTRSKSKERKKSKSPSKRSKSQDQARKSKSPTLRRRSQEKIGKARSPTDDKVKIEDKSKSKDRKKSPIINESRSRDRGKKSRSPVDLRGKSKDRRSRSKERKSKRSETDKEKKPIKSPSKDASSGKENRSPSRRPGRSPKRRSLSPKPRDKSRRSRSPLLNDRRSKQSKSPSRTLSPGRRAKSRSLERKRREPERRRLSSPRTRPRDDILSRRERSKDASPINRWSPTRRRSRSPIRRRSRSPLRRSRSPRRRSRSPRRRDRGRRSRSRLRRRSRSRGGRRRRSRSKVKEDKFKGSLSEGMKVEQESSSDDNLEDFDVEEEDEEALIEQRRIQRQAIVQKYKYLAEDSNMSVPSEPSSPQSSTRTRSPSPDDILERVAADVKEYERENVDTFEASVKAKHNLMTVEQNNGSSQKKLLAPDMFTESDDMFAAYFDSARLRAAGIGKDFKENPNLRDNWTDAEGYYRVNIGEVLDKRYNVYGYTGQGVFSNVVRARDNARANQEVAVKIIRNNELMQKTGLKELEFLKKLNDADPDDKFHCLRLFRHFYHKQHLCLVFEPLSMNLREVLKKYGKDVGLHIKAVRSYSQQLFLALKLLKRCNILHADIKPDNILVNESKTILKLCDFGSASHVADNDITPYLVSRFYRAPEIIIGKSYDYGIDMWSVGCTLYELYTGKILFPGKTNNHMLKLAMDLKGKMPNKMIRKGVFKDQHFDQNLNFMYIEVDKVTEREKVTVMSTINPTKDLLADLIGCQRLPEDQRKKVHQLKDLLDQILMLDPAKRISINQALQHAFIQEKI

[9] = biological target: T3, Ephrin type-B receptor 3 (Homo sapiens) (UniProt P54753)
T3 sequence (whole entry): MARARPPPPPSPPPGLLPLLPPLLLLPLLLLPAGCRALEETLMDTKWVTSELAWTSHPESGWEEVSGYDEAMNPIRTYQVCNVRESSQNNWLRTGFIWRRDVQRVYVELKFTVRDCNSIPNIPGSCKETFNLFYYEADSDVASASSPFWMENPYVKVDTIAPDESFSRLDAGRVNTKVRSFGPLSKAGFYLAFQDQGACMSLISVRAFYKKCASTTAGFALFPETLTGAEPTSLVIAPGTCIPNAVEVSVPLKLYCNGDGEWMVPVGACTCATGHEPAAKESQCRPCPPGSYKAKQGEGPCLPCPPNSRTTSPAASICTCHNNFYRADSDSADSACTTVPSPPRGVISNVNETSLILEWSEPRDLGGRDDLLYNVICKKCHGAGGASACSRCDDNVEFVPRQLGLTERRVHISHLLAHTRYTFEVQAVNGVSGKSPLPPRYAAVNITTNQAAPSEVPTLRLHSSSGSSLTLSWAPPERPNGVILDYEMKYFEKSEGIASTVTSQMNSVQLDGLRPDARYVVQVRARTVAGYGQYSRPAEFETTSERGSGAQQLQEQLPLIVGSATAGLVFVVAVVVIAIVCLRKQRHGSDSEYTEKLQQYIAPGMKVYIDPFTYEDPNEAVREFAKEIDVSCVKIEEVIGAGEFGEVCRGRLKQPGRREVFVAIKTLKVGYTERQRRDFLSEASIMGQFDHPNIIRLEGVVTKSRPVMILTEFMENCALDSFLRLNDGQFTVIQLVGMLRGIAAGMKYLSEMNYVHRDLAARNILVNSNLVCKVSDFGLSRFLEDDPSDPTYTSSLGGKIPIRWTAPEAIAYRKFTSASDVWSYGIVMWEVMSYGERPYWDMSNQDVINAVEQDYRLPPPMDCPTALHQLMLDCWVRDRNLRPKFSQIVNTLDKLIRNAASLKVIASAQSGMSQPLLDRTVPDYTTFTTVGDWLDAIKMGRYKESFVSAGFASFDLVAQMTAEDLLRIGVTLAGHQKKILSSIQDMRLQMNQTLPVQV

[10] = biological target: Focal adhesion kinase 1 (Homo sapiens) (UniProt Q05397)
Focal adhesion kinase 1 (Homo sapiens), sequence (Q05397 2-1052 limits assumed): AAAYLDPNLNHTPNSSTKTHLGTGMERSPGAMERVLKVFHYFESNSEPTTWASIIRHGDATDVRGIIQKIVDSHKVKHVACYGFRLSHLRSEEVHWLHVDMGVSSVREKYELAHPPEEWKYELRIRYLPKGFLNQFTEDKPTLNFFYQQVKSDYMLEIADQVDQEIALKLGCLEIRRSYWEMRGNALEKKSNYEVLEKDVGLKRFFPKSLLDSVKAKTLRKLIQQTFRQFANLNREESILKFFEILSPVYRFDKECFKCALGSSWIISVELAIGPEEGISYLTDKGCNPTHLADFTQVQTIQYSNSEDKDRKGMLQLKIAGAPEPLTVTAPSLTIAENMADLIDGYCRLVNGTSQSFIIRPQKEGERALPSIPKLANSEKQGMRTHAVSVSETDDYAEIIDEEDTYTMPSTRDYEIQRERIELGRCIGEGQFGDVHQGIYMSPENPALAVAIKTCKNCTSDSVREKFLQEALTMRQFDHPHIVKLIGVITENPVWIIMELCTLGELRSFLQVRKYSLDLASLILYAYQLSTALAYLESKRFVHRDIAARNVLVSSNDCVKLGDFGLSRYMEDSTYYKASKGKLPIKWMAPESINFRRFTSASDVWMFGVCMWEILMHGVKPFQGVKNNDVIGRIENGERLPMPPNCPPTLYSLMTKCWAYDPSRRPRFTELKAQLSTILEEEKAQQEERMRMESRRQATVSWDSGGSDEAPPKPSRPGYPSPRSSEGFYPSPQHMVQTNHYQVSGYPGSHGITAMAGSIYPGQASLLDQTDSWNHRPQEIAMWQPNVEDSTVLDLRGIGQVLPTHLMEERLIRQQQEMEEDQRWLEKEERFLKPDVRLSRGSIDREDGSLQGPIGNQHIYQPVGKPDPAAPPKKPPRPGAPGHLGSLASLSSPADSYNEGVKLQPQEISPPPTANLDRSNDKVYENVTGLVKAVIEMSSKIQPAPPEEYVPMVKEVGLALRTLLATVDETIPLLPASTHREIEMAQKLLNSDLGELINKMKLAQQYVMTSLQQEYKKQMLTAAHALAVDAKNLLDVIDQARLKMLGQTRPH

[11] = Compound concentration 1000.0 nM
[12] = Compound concentration 100.0 nM

Measured: residual activity

Casein kinase I isoform delta (Homo sapiens), sequence (P48730 whole entry, looked up, canonical isoform): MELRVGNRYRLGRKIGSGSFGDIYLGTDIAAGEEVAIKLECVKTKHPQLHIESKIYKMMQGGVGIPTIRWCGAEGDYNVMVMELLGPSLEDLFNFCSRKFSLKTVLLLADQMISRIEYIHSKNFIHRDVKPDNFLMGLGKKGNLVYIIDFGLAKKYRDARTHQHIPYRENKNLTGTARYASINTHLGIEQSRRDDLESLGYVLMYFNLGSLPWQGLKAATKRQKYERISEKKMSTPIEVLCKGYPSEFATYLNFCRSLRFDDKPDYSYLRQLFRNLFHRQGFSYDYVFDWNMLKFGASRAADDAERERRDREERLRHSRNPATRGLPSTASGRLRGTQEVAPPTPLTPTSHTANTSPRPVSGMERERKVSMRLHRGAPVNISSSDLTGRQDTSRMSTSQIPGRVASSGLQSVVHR
Tyrosine-protein kinase Fgr (Homo sapiens), sequence (P09769 2-529 limits assumed): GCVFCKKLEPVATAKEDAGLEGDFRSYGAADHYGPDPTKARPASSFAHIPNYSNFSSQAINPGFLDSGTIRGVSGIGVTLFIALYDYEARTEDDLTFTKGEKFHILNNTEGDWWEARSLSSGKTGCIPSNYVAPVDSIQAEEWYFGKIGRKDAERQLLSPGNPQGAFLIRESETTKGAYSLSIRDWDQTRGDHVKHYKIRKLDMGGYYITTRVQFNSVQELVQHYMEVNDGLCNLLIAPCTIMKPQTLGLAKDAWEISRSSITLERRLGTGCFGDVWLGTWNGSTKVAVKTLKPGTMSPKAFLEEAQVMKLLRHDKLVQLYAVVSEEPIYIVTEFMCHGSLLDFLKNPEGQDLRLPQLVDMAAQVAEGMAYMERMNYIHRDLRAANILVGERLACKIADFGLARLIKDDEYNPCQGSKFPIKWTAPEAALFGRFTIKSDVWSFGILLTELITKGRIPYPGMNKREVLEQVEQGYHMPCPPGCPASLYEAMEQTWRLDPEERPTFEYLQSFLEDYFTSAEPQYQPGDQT
Cyclin-dependent kinase 11B (Homo sapiens), sequence (P21127 whole entry): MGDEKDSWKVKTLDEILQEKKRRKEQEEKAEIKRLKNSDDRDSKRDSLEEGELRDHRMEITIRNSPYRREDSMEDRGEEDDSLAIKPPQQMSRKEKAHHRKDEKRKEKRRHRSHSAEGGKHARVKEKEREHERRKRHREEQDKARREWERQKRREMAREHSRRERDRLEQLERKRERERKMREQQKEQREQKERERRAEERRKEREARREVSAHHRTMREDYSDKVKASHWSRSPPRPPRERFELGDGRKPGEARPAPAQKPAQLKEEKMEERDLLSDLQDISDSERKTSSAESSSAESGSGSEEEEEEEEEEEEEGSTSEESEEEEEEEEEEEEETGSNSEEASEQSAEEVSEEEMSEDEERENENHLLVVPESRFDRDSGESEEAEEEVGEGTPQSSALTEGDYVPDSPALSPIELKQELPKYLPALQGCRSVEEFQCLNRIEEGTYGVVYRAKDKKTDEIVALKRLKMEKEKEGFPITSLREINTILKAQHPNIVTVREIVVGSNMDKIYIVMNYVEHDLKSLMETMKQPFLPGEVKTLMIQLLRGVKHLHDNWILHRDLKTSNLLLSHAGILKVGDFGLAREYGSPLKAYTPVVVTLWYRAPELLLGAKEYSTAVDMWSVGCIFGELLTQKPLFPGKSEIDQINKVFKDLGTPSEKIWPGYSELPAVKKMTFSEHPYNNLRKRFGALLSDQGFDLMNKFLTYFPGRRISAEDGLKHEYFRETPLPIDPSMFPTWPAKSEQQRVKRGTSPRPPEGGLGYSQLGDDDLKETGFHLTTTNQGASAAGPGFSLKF
Mitogen-activated protein kinase kinase kinase 11 (Homo sapiens), sequence (Q16584 whole entry, looked up): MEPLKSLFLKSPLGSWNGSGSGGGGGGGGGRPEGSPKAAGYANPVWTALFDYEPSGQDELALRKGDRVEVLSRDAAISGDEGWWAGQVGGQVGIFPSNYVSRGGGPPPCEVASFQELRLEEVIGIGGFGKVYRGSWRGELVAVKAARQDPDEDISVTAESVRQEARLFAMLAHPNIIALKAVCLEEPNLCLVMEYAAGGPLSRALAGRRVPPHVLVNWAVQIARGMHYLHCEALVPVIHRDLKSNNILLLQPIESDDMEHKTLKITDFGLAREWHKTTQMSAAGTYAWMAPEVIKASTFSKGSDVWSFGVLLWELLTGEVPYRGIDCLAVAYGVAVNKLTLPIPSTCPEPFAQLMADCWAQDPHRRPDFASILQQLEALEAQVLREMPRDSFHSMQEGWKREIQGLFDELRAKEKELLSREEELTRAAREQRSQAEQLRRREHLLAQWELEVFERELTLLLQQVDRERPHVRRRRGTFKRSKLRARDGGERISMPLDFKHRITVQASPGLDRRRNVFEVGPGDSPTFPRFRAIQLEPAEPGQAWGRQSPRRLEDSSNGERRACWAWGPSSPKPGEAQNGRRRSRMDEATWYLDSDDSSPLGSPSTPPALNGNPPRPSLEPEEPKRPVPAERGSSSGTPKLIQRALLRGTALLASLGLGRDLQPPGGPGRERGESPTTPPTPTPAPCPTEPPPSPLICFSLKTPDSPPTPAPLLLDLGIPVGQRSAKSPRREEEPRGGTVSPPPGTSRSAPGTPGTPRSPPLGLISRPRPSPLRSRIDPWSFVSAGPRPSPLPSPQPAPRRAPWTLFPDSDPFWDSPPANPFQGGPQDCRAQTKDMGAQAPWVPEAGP

C[C@@H]1CN(c2cc(-c3nn(C)c4ccc(OC5(C)CC5)cc34)ncn2)C[C@H](C)O1 [MLi-2-NC]
inactive: [1]; [11] 84% | [2]; [11] 100% | [3]; [11] 64% | [4]; [11] 90% | [5]; [11] 88% | [6]; [11] 100% | [7]; [11] 100% | [8]; [11] 100% | [9]; [11] 100% | [10]; [11] 95%

C[C@@H]1CN(c2cc(-c3n[nH]c4ccc(OC5(C)CC5)cc34)ncn2)C[C@H](C)O1 [MLi-2]
inactive: [1]; [12] 80% | [2]; [12] 100% | [3]; [12] 65% | [4]; [12] 89% | [5]; [12] 88% | [6]; [12] 76% | [7]; [12] 83% | [8]; [12] 83% | [9]; [12] 98% | [10]; [12] 81%

Source: ChEMBL document CHEMBL4507291 (2021)
